# Source: ChEMBL document CHEMBL3885881, “DrugMatrix”
# Species on record: Rattus norvegicus
# Assay: DrugMatrix - Regimen: Daily Repeat
# Assay type: toxicity, organism-based, Sprague-Dawley
# Design: regimen Daily Repeat, gender Male, age 6-8 weeks
# Details: in vivo, sc, route subcutaneous, […]; for ABSOLUTE BASOPHIL / ABSOLUTE EOSINOPHIL / ABSOLUTE LYMPHOCYTE / ABSOLUTE MONOCYTE / ABSOLUTE SEGMENTED NEUTROPHIL / BASOPHIL / EOSINOPHIL / ERYTHROCYTE COUNT / HEMATOCRIT / HEMOGLOBIN / LEUKOCYTE COUNT / LYMPHOCYTE / MEAN CORPUSCULAR HEMOGLOBIN / MEAN CORPUSCULAR HEMOGLOBIN CONCENTRATION / MONOCYTE / NUCLEATED RED BLOOD CELLS / PLATELET COUNT: tissue Blood; for ALANINE AMINOTRANSFERASE / ALBUMIN / ALKALINE PHOSPHATASE / ASPARTATE AMINOTRANSFERASE / BLOOD UREA NITROGEN / CARBON DIOXIDE / CHLORIDE / CHOLESTEROL / CREATINE PHOSPHOKINASE / CREATININE / GLUCOSE / LACTATE DEHYDROGENASE / PHOSPHORUS / POTASSIUM / SODIUM / TOTAL BILIRUBIN / TOTAL PROTEIN / URIC ACID: tissue Plasma
# [1] = 130 mg/kg, 72 h, dose level High, time 3 day
# [2] = 130 mg/kg, 120 h, dose level High, time 5 day
# [3] = 72 h, dose 2.4 mg/Kg, dose level Low, time 3 day
# [4] = 120 h, dose 2.4 mg/Kg, dose level Low, time 5 day
structure (smiles),measurement,setting,value
CC(C)(C)NCC(O)c1cc(O)cc(O)c1 (stereo not given) [TERBUTALINE],ABSOLUTE BASOPHIL,[1],0 CELLS/uL
same,ABSOLUTE EOSINOPHIL,[1],167.67 CELLS/uL
same,ABSOLUTE LYMPHOCYTE,[1],11900.33 CELLS/uL
same,ABSOLUTE MONOCYTE,[1],398.67 CELLS/uL
same,ABSOLUTE SEGMENTED NEUTROPHIL,[1],1166.67 CELLS/uL
same,BASOPHIL,[1],0%
same,EOSINOPHIL,[1],1.33%
same,ERYTHROCYTE COUNT,[1],5.52 x10E6/uL
same,HEMATOCRIT,[1],35.5%
same,HEMOGLOBIN,[1],13.33 G/DL
same,LEUKOCYTE COUNT,[1],13.63 x10E3/uL
same,LYMPHOCYTE,[1],87%
same,MEAN CORPUSCULAR HEMOGLOBIN,[1],24.2 pg
same,MEAN CORPUSCULAR HEMOGLOBIN CONCENTRATION,[1],37.57 G/DL
same,MONOCYTE,[1],3%
same,NUCLEATED RED BLOOD CELLS,[1],0 /100WBC
same,PLATELET COUNT,[1],1383.67 x10E3/uL
same,ALANINE AMINOTRANSFERASE,[1],49 u/L
same,ALBUMIN,[1],4.03 G/DL
same,ALKALINE PHOSPHATASE,[1],361 u/L
same,ASPARTATE AMINOTRANSFERASE,[1],73.33 u/L
same,BLOOD UREA NITROGEN,[1],18.33 mg/dL
same,CARBON DIOXIDE,[1],25.67 mmol/L
same,CHLORIDE,[1],104 MEQ/L
same,CHOLESTEROL,[1],72.33 mg/dL
same,CREATINE PHOSPHOKINASE,[1],253.67 u/L
same,CREATININE,[1],0.23 mg/dL
same,GLUCOSE,[1],146 mg/dL
same,LACTATE DEHYDROGENASE,[1],407 u/L
same,PHOSPHORUS,[1],12.8 mg/dL
same,POTASSIUM,[1],6.42 MEQ/L
same,SODIUM,[1],145.5 MEQ/L
same,TOTAL BILIRUBIN,[1],0.2 mg/dL
same,TOTAL PROTEIN,[1],5.97 G/DL
same,URIC ACID,[1],1.3 mg/dL
same,ABSOLUTE BASOPHIL,[2],0 CELLS/uL
same,ABSOLUTE EOSINOPHIL,[2],53.33 CELLS/uL
same,ABSOLUTE LYMPHOCYTE,[2],12240 CELLS/uL
same,ABSOLUTE MONOCYTE,[2],406 CELLS/uL
same,ABSOLUTE SEGMENTED NEUTROPHIL,[2],2467.33 CELLS/uL
same,BASOPHIL,[2],0%
same,EOSINOPHIL,[2],0.33%
same,ERYTHROCYTE COUNT,[2],6.08 x10E6/uL
same,HEMATOCRIT,[2],37.43%
same,HEMOGLOBIN,[2],14.03 G/DL
same,LEUKOCYTE COUNT,[2],15.17 x10E3/uL
same,LYMPHOCYTE,[2],80.67%
same,MEAN CORPUSCULAR HEMOGLOBIN,[2],23.13 pg
same,MEAN CORPUSCULAR HEMOGLOBIN CONCENTRATION,[2],37.47 G/DL
same,MONOCYTE,[2],2.67%
same,NUCLEATED RED BLOOD CELLS,[2],0.33 /100WBC
same,PLATELET COUNT,[2],1346 x10E3/uL
same,ALANINE AMINOTRANSFERASE,[2],52.67 u/L
same,ALBUMIN,[2],4.13 G/DL
same,ALKALINE PHOSPHATASE,[2],293.33 u/L
same,ASPARTATE AMINOTRANSFERASE,[2],84.67 u/L
same,BLOOD UREA NITROGEN,[2],17.33 mg/dL
same,CARBON DIOXIDE,[2],28.33 mmol/L
same,CHLORIDE,[2],101.33 MEQ/L
same,CHOLESTEROL,[2],69 mg/dL
same,CREATINE PHOSPHOKINASE,[2],289.33 u/L
same,CREATININE,[2],0.22 mg/dL
same,GLUCOSE,[2],150.67 mg/dL
same,LACTATE DEHYDROGENASE,[2],492.33 u/L
same,PHOSPHORUS,[2],14.6 mg/dL
same,POTASSIUM,[2],6.32 MEQ/L
same,SODIUM,[2],146.93 MEQ/L
same,TOTAL BILIRUBIN,[2],0.2 mg/dL
same,TOTAL PROTEIN,[2],6.13 G/DL
same,URIC ACID,[2],1.93 mg/dL
same,ABSOLUTE BASOPHIL,[3],0 CELLS/uL
same,ABSOLUTE EOSINOPHIL,[3],181 CELLS/uL
same,ABSOLUTE LYMPHOCYTE,[3],16357.33 CELLS/uL
same,ABSOLUTE MONOCYTE,[3],366 CELLS/uL
same,ABSOLUTE SEGMENTED NEUTROPHIL,[3],1395.67 CELLS/uL
same,BASOPHIL,[3],0%
same,EOSINOPHIL,[3],1%
same,ERYTHROCYTE COUNT,[3],5.97 x10E6/uL
same,HEMATOCRIT,[3],37.73%
same,HEMOGLOBIN,[3],13.8 G/DL
same,LEUKOCYTE COUNT,[3],18.3 x10E3/uL
same,LYMPHOCYTE,[3],89.33%
same,MEAN CORPUSCULAR HEMOGLOBIN,[3],23.13 pg
same,MEAN CORPUSCULAR HEMOGLOBIN CONCENTRATION,[3],36.6 G/DL
same,MONOCYTE,[3],2%
same,NUCLEATED RED BLOOD CELLS,[3],0 /100WBC
same,PLATELET COUNT,[3],1334.67 x10E3/uL
same,ALANINE AMINOTRANSFERASE,[3],41.67 u/L
same,ALBUMIN,[3],4.2 G/DL
same,ALKALINE PHOSPHATASE,[3],286.67 u/L
same,ASPARTATE AMINOTRANSFERASE,[3],75 u/L
same,BLOOD UREA NITROGEN,[3],17 mg/dL
same,CARBON DIOXIDE,[3],24.33 mmol/L
same,CHLORIDE,[3],105.67 MEQ/L
same,CHOLESTEROL,[3],72.67 mg/dL
same,CREATINE PHOSPHOKINASE,[3],235.33 u/L
same,CREATININE,[3],0.23 mg/dL
same,GLUCOSE,[3],155.67 mg/dL
same,LACTATE DEHYDROGENASE,[3],382 u/L
same,PHOSPHORUS,[3],13.4 mg/dL
same,POTASSIUM,[3],6.76 MEQ/L
same,SODIUM,[3],149.43 MEQ/L
same,TOTAL BILIRUBIN,[3],0.2 mg/dL
same,TOTAL PROTEIN,[3],6.23 G/DL
same,URIC ACID,[3],1.77 mg/dL
same,ABSOLUTE BASOPHIL,[4],0 CELLS/uL
same,ABSOLUTE EOSINOPHIL,[4],0 CELLS/uL
same,ABSOLUTE LYMPHOCYTE,[4],13803 CELLS/uL
same,ABSOLUTE MONOCYTE,[4],207 CELLS/uL
same,ABSOLUTE SEGMENTED NEUTROPHIL,[4],2023.33 CELLS/uL
same,BASOPHIL,[4],0%
same,EOSINOPHIL,[4],0%
same,ERYTHROCYTE COUNT,[4],5.8 x10E6/uL
same,HEMATOCRIT,[4],36.37%
same,HEMOGLOBIN,[4],13.53 G/DL
same,LEUKOCYTE COUNT,[4],16.03 x10E3/uL
same,LYMPHOCYTE,[4],86%
same,MEAN CORPUSCULAR HEMOGLOBIN,[4],23.33 pg
same,MEAN CORPUSCULAR HEMOGLOBIN CONCENTRATION,[4],37.23 G/DL
same,MONOCYTE,[4],1.33%
same,NUCLEATED RED BLOOD CELLS,[4],0 /100WBC
same,PLATELET COUNT,[4],1437.33 x10E3/uL
same,ALANINE AMINOTRANSFERASE,[4],49.33 u/L
same,ALBUMIN,[4],4.13 G/DL
same,ALKALINE PHOSPHATASE,[4],415 u/L
same,ASPARTATE AMINOTRANSFERASE,[4],76 u/L
same,BLOOD UREA NITROGEN,[4],20.33 mg/dL
same,CARBON DIOXIDE,[4],27.67 mmol/L
same,CHLORIDE,[4],105 MEQ/L
same,CHOLESTEROL,[4],63 mg/dL
same,CREATINE PHOSPHOKINASE,[4],180 u/L
same,CREATININE,[4],0.22 mg/dL
same,GLUCOSE,[4],154 mg/dL
same,LACTATE DEHYDROGENASE,[4],224.33 u/L
same,PHOSPHORUS,[4],13.03 mg/dL
same,POTASSIUM,[4],6.39 MEQ/L
same,SODIUM,[4],146.27 MEQ/L
same,TOTAL BILIRUBIN,[4],0.17 mg/dL
same,TOTAL PROTEIN,[4],5.87 G/DL
same,URIC ACID,[4],1.57 mg/dL
